# Results reported in ChEMBL document CHEMBL1828594, “Synthesis, stereochemistry and SAR of a series of minodronate analogues as RGGT inhibitors” (Eur J Med Chem, 2011).
# Columns and labels:
# [1] = Inhibition of RGGT in cell-based assay assessed as inhibition of Rab11 prenylation after 24 hrs by Western blot analysis
# [2] = Inhibition of RGGT assessed as [3H]GGPP incorporation into Rab1a protein after 30 mins
# [3] = test system: J774; assay: Cytotoxicity against mouse J774 cells assessed as reduction in cell viability after 48 hrs; format: functional, cell-based; details: J774, 48 h
Compound,IC50 [2] [µM],LED [1] [µM],IC50 [3] [µM]
O=C(O)C(F)(Cc1cnc2ccccn12)P(=O)(O)O (stereo not given),6.11,6,60
O=C(O)C(Br)(Cc1cnc2ccccn12)P(=O)(O)O (racemic),5.56,25,> 600
"O=C(O)C(O)(Cc1cnc2ccccn12)P(=O)(O)O (racemic) [(2-HYDROXY-3-IMIDAZO[1,2-A]PYRIDIN-3-YL-2-PHOSPHONOPROPIONIC ACID (ENANTIONMERS)]",1.24,3,50

# Continued by falling IC50 [2], values first:
IC50 [2] [µM],Compound,LED [1] [µM],IC50 [3] [µM]
13.4,O=C(O)C(Cc1cnc2ccccn12)P(=O)(O)O (racemic),12,> 600
7.5,O=C(O)C(Cl)(Cc1cnc2ccccn12)P(=O)(O)O (racemic),12,> 400
